According to patent US10206900B2, “Treatments for fibrotic diseases” (MOR RESEARCH APPLICATIONS LTD., priority 2013, dated 2019):

How the values were obtained:
RPE cells [1] = assay: Scratch assay, cell migration upon TGF-β1 stimulation; type: cell-based; details: 1 μM, TGF-β1 2.5 ng/ml, 24 and 48 hours
Method: FIGS. 2A-2C TAK1 regulates RPE cells EMT phenotype upon TGF-β stimulation. FIG. 2A: RPE cells were serum-starved for 16 hours, pretreated with 5Z-7-oxozeaenol (1 μM) or left untreated for 1 hour. The cells were then treated with TGF-β1 (2.5 ng/ml) as described herein for 24 h and immunostained with α-SMA antibodies (red) and DAPI (blue). Representative photographs of three independent experiments. The histogram in the bottom panel represents quantification of α-SMA antibody pixel intensity. FIG. 2B: RPE cells were serum-starved for 16 hours, then treated with mitomycin C (10 ng/ml) for 3 h. Thereafter, pretreated with 5Z-7-oxozeaenol (1 μM) or Dimethyl sulfoxide (DMSO) for 1 hour. Following this process a scratch was performed in the cell monolayer and the serum free medium was supplemented with TGF-β1 (2.5 ng/ml) or left unsupplemented. Scratches were photo-documented at the indicated times (top panel) and their width was measured using Image-J software. […] Bars are Mean±SD. FIG. 2C: RPE cells were serum-starved for 16 hours then pretreated with 5Z-7-oxozeaenol (1 μM) or SB431542 (10 μM), or DMSO for 1 hour. […] Total MMP-9 activities were processed by gelatin zymography (top panel) and the band intensity values were calculated by Quantity One® 1-D analysis software. […] Data is expressed as the Mean±SD. […]

RPE cells [2] = assay: In vitro scratch wound healing assay upon TNFα stimulation; type: cell-based; details: 1 μM for 1 hour before 20 ng/ml TNFα, day 1 and 2
Method: FIG. 8A: Cell migration of RPE cells in in vitro scratch wound healing assay. RPE cells were treated with Mitomycin C for 3 hours. After the cells were treated with 1 μM 5Z-7 for 1 hour before adding 20 ng/ml TNFα and wounding on day 0. Photographs were taken at day 1 and 2, respectively, after the wound was made. FIG. 8B: Percentage of the gap size (*, P<0.05, t test); (**, P<0.01, t test). To further support the finding that TAK1 mediated EMT in RPE, we examined the migratory capacity of RPE cells, a well-known marker for EMT (Lee et al., J Cell Biol 2006, 172:973-981). Cell migration was tested by the scratch assay. The assay was performed on RPE cells pretreated or untreated with TAK1 inhibitor prior to stimulation with TGF-β1. […] At 24 hours, in the TGF-β1 treated culture, a major portion of the cells had already migrated into the wounded area, displaying almost complete wound closure at 48 hours.

CTGF = CTGF transcription by qPCR in RPE cells; type: cell-based; details: 1 μM, TGF-β1, 6 h, 16 h and 24 h
Method: FIG. 3A: RPE cells were plated on fibronectin-coated glass coverslips, serum-starved for 16 hours, pretreated with 5Z-7-oxozeaenol (1 μM) or SB431542 (10 μM), or DMSO for 1 hour, then treated with or without TGF-β1 for 2 days. Following treatment, the cells were stained with rhodamine-phalloidin (actin fibers-red) and DAPI (blue) and visualized by confocal microscopy. Scale bars: […]. FIG. 3B: Serum-starved RPE cells pretreated with 5Z-7-oxozeaenol (1 μM) or DMSO for 1 hour, and were exposed to TGF-β as in FIG. 3A. Total RNA was extracted at each time point and qPCR was performed. Transcription levels of CTGF were determined after 6 h, 16 h and 24 h. Bars represent the specific mRNA amount relative to GAPDH mRNA in the same samples. All experiments were performed in triplicates. A representative histogram from two independent experiments is shown. FIG. 3C: RPE cells were plated and treated as in FIG. 3A. Following treatment, the cells were immunostained with E-cadherin antibodies (green) and DAPI (blue). Representative photographs of two independent experiments are shown. CTGF, an important stimulant of fibrosis, functions as a downstream mediator of TGF-β, stimulating cell proliferation and cell matrix deposition (He et al., Invest Ophthalmol Vis Sci 2008, 49:4078-4088). We examined the association between TGF-β1 and CTFG expression in RPE cells by Real Time PCR (FIG. 3B).

[3] = system: TGF-β cascades in epithelial lung cells; assay: Western blot of TGF-β cascades in A549 lung cells; type: cell-based; details: 1 μM for 1 hour, TGF-β 2.5 ng/ml
Method: FIG. 14: Inhibition of TAK1 by 5z-7 abolishes the activation of TGF-β cascades in epithelial lung cells: Serum-starved A549 cells were pretreated with or without with 5Z-7-oxozeaenol (1 μM) for 1 hour and then with TGF-β (2.5 ng/ml) for the indicated times. Total protein extracts were analyzed by western blot using the indicated antibodies. […] Similarly, A549 lung cells were pretreated with or without with 5Z-7-oxozeaenol (1 μM) for 1 hour and then with TGF-β (2.5 ng/ml).

c57Black mice = assay: Dispase-induced PVR in mice (H&E histology); type: in vivo; details: treated 96 hour post-dispase, H&E 96 hours later
Method: 96 hour post-treatment, the mice were further treated with 5Z-7-oxozeaenol left untreated, and 96 hours later, mice were sacrificed, eyes were enucleated and stained with hematoxylin and eosin (H&E). […] As shown in the middle panel, dispase caused PVR, manifested by loss of normal cellular architecture of the retina, presence of numerous inflammatory cells and presence of RPE cells throughout all retinal layers compared to the control (left panel). As shown in the right panel, treatment with 5Z-7-oxozeaenol maintained the normal retinal structure and prevented the development of the fibrotic response. 7-8 week old c57Black mice were treated or left untreated with dispase to generate PVR in the mice. 96 hour post-treatment, the mice were treated with 5Z-7-oxozeaenol or left untreated, and 96 hour later, mice were sacrificed, eye were […] and stained with hematoxylin and eosin (H&E).

## COc1cc(O)c2c(c1)/C=C/C[C@H](O)[C@H](O)C(=O)/C=C\C[C@H](C)OC2=O [5Z-7-oxozeaenol]
RPE cells [1]
  migratory capacity of TGF-β1 stimulated cells (scratch assay): abolished their migratory capacity
RPE cells [2]
  migration rates of RPE cells treated with TNFα: inhibited the migration rates
CTGF
  levels of CTGF (mRNA relative to GAPDH): gradually reduced the levels of CTGF
[3]
  fibrotic affect stimulated by TGF-β (western blot): abolishes the fibrotic affect
c57Black mice
  development of the fibrotic response / retinal structure (PVR): prevents the development of the fibrotic response
